Consider 1 substance from US11207379B2, “Peptides with anti-cancer activity” (IDP DISCOVERY PHARMA, S.L., priority 2016, dated 2021).

What all share (format): cell-based
Experiment [1] deals with A549 cells. Kind of experiment: Annexin V assay by flow cytometry. As to conditions: A549 cells. Here is the method:
Miltenyi Biotec Annexin V-FITC Kit was used. To detect apoptosis in early stage Phosphatidylserine in plasmatic membrane localization was measured, though the calcium dependent reaction with Annexine V. Annexin V molecules were labelled with different fluorophores (FITC) and analyzed by FACS. To detect apoptosis in late stage DNA-intercalating agents, such Propidium iodide (PI) were used.
Cells were seeded at a density range of 150000-30000 cells/well in 12 wells plates, and incubated at 37° C. in the incubator under CO2 atmosphere. After 24 h, […] A549, HL-60 and MM.1S, at IC30 and/or IC80, with compounds IDP-S09 and IL-09, in cell lines HL-60 and MM.1S with compound IDP-S04 and in cell line A549 with compounds IDP-S02 and IDP-S03. Staurosporine and compound 100258-F4 (Sigma) were used as positive control and reference compound, respectively.

Experiment [2] has as its target A549, epithelial (lung cancer). Kind of experiment: Viability assay (MTT, Alamar Blue, hexosaminidase), 72 h. As to conditions: A549 cells, read-out: EC50. In a few lines: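 A549 cells (5000/well, DMEM+10% FBS) were exposed for 72 h at 37° C. to compound, twofold serial dilutions from 100 μM, in triplicate. Viability was read consecutively by MTT (A570), Alamar Blue fluorescence and hexosaminidase activity, normalised to untreated cells. EC50 came from a variable-slope sigmoidal fit.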
(In general: The colour change of resazurin is a common sign of viable cells or microbes.)

The target of experiment [3] is MM.1S, B Lymphoblast (multiple myeloma). The description is as above. As to conditions: MM.1S cells, read-out: EC50. In a few lines: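 MM.1S cells (RPMI-1640, 10% FBS, 2 mM glutamine, 37 °C) were seeded at 10000 cells/well and dosed after 24 h, starting at 100 μM with 1:1 serial dilutions, in triplicate, for 72 h. Viability was read sequentially by MTT (570 nm), Alamar Blue (535/590) and hexosaminidase (pH 5.0). Values were normalized to control (100%), and EC50 came from a variable-slope sigmoidal fit.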

Broadly, the EC50 is the concentration giving half of the maximal effect. On to RQRRNXLKRAFAXLRDQ-OH [IDP-S03], for which the “apoptosis induction (Annexin V by FACS), in words” value in experiment [1] is “apoptosis induction is detected after 4 h at both IC30 and IC80”. Moreover, the EC50 was 34 ± 6 µM in experiment [2] and about 14 µM in experiment [3].
